A word on the TGI: it is the concentration at which net growth stops. Low values mean more potent growth arrest, high ones less potent growth arrest.

Here are results for 12 molecules from PubChem BioAssay (NCI).

What all share (assay): DTP human tumour cell line panel, 48 h
The test system of test [1] is A549 NSCLC.
Test [2] concerns NCI-H522 lung.
In test [3] the test system is 786-0 renal.
Test [4] deals with CAKI-1 renal.
For test [5], the system named is SK-OV-3 ovarian.
Test [6] relates to OVCAR-5 ovarian.
The subject of test [7] is SK-MEL-5 melanoma.
The subject of test [8] is HCT-15 colon.
Test [9] relates to HL-60(TB) leukemia.
Test [10] has as its system HCC-2998 colon.
The test system of test [11] is NCI-H460 lung.

Each structure is given as a SMILES string.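 Values below derive from 48-hour exposures of cells grown in 96-well plates, with endpoints linearly interpolated between the two concentrations bracketing the appropriate inhibition level. TGI: total growth inhibition.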

For the molecule `O=C(O)c1nc2cc(C(F)(F)F)ccc2[nH]c1=O`, the TGI in [1], in test [2], in [3], in test [4], in test [5] and in test [6] was > 100 µM throughout. Moreover, the TGI in test [7], in test [8], in test [9], in test [10] and in [11] was > 100 µM throughout.
Regarding `CN(C)c1ccc(/C=C2\N=C(c3ccccc3)N(/N=C3\C(=O)Nc4ccccc43)C2=O)cc1`, the TGI in test [1], in [2], in [3], in [4], in [5] and in test [6] was > 100 µM throughout. Further, the TGI in test [7], in [8], in test [9], in test [10] and in test [11] was > 100 µM each time.
As for `COC(=O)C(CCSc1ccccc1)C(=O)OC`, the TGI in test [1], in test [2], in test [3], in [4], in [5] and in test [6] was > 100 µM in each case. Moreover, the concentration for total growth inhibition (TGI) in test [7], in test [8], in test [9], in [10] and in test [11] was > 100 µM throughout.
As for `CCN(CC)C(=O)N[C@@H](Cc1ccccc1)C(=O)NC`, the TGI in [1], in [2], in [3], in test [4], in test [5] and in [6] was > 100 µM each time. The total growth inhibition concentration (TGI) in test [7], in test [8], in test [9], in [10] and in [11] was > 100 µM throughout.
As to `Cc1n(-c2ccccc2)c2c([n+]1Cc1ccc([N+](=O)[O-])cc1)C(=O)c1ccccc1C2=O`, the TGI in test [1] is 10.7 µM; in [2], 1.67 µM; in [3], 14.7 µM; in [4], 39.7 µM; in test [5], 12.5 µM; in [6], 3.46 µM. Besides, the TGI in test [7] turned out to be 3.29 µM; in test [8], 22.5 µM; in test [9], 1.35 µM; in test [10] it was 4.2 µM; in test [11] it was 12.4 µM.
In the case of `NC(N)=NCCCC(NCc1c2ccccc2[n+]([O-])c2ccccc12)C(=O)O` (configuration not stated), the total growth inhibition concentration (TGI) in test [1], in test [2], in [3], in test [4], in test [5] and in test [6] was > 100 µM throughout. The TGI in [7] was > 100 µM; in test [8], > 100 µM; in test [9], 58.7 µM; in test [10], > 100 µM; in test [11] it was > 100 µM.
`CSc1n[nH]c2n[nH]c(C)c12`: the concentration for total growth inhibition (TGI) in test [1], in test [2], in test [3], in test [4], in test [5] and in test [6] was > 100 µM throughout. For the same molecule, the TGI in test [7], in test [8], in test [9], in test [10] and in test [11] was > 100 µM in each case.
On to `Cc1ccc(C2SC(N)=Nc3c2c(C)nn3C(=O)c2ccc(Cl)cc2)cc1` (configuration not stated), for which the TGI in [1], in [2], in test [3], in test [4], in test [5] and in [6] was > 10 µM in each case. Moreover, the TGI in test [7], in test [8], in test [9], in test [10] and in test [11] was > 10 µM in each case.
With `N#Cc1nc(NC(=O)c2ccccc2)sc1N`, the TGI in test [1], in test [2], in test [3], in test [4], in test [5] and in [6] was > 10 µM throughout. For the same molecule, the TGI in test [7], in [8], in test [9], in test [10] and in [11] was > 10 µM in each case.
Turning to `CC(=O)O[C@H]1CC[C@@]2(C)C(=CC[C@H]3[C@@H]4C/C(=C\c5ccncc5)[C@H](OC(C)=O)[C@@]4(C)CC[C@@H]32)C1`, the TGI in test [1] turned out to be 29.8 µM; in [2], 18.5 µM; in test [3], 23.3 µM; in test [4], 25.7 µM; in test [5], 44.1 µM; in test [6], 36.6 µM. Further, the total growth inhibition concentration (TGI) in [7] is 18.9 µM; in test [8], 15.6 µM; in [9], 16.7 µM; in test [10], 26.3 µM; in [11], 24.4 µM.
Consider `CC(=O)[C@]1(C)[C@H](C)O[C@](C)(CO)[C@H]1O[Si](C)(C)c1ccccc1`, for which the TGI in [1] is > 100 µM; in test [2], 52.3 µM; in test [3], > 100 µM; in test [4], 54.2 µM; in [5] it was > 100 µM; in test [6], > 100 µM. For the same molecule, the TGI in [7] was > 100 µM; in [8], 84.6 µM; in [9], 72.4 µM; in [10], > 100 µM; in test [11] it was > 100 µM.
With `CC1C(=O)CC[C@@]2(C)C(=O)CCCC12O` (some centres not stated), the TGI in test [1], in [2], in test [3], in test [4], in test [5] and in [6] was > 100 µM in each case. In addition, the TGI in test [7], in test [8], in [9], in test [10] and in test [11] was > 100 µM each time.
